Experimental data: PubChem BioAssay (NCI)
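Tested at 5 concentrations; 48 h exposure; 96-well plates; endpoints linearly interpolated, else capped at highest concentration. Definition used: TGI = concentration required for complete inhibition of growth.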

How the values were obtained:
Test in all cases: inhibition of tumour cell growth, NCI panel, 48 h
SW-620 colon = tested on: SW-620 colon
BT-549 breast = tested on: BT-549 breast
COLO 205 colon = tested on: COLO 205 colon
SF-295 CNS = tested on: SF-295 CNS
MDA-N = tested on: MDA-N
OVCAR-4 ovarian = tested on: OVCAR-4 ovarian
HCC-2998 colon = tested on: HCC-2998 colon
HT29 colon = tested on: HT29 colon
SK-MEL-28 melanoma = tested on: SK-MEL-28 melanoma
MDA-MB-231 breast = tested on: MDA-MB-231 breast
NCI-H522 lung = tested on: NCI-H522 lung
A498 renal = tested on: A498 renal
MALME-3M melanoma = tested on: MALME-3M melanoma
HCT-15 colon = tested on: HCT-15 colon
TK-10 renal = tested on: TK-10 renal
RXF 393 renal = tested on: RXF 393 renal
SK-MEL-2 melanoma = tested on: SK-MEL-2 melanoma
OVCAR-3 ovarian = tested on: OVCAR-3 ovarian
MOLT-4 leukemia = tested on: MOLT-4 leukemia
KM12 colon = tested on: KM12 colon
DU-145 prostate = tested on: DU-145 prostate
HOP-92 NSCLC = tested on: HOP-92 NSCLC
T-47D breast = tested on: T-47D breast
SNB-75 CNS = tested on: SNB-75 CNS
LOX IMVI melanoma = tested on: LOX IMVI melanoma
SN12C renal = tested on: SN12C renal
SNB-19 CNS = tested on: SNB-19 CNS
OVCAR-5 ovarian = tested on: OVCAR-5 ovarian
MCF7 breast = tested on: MCF7 breast
NCI/ADR-RES ovarian = tested on: NCI/ADR-RES ovarian
HCT-116 colon = tested on: HCT-116 colon
SR leukemia = tested on: SR leukemia
EKVX NSCLC = tested on: EKVX NSCLC
RPMI-8226 leukemia = tested on: RPMI-8226 leukemia
HL-60(TB) leukemia = tested on: HL-60(TB) leukemia
MDA-MB-435 = tested on: MDA-MB-435
NCI-H226 lung = tested on: NCI-H226 lung
NCI-H23 lung = tested on: NCI-H23 lung
ACHN renal = tested on: ACHN renal
CCRF-CEM leukemia = tested on: CCRF-CEM leukemia
K-562 leukemia = tested on: K-562 leukemia
UACC-62 melanoma = tested on: UACC-62 melanoma
A549 NSCLC = tested on: A549 NSCLC
HS 578T breast = tested on: HS 578T breast
OVCAR-8 ovarian = tested on: OVCAR-8 ovarian
PC-3 prostate = tested on: PC-3 prostate
UACC-257 melanoma = tested on: UACC-257 melanoma
NCI-H460 lung = tested on: NCI-H460 lung
CAKI-1 renal = tested on: CAKI-1 renal
SF-268 CNS = tested on: SF-268 CNS
SF-539 CNS = tested on: SF-539 CNS
UO-31 renal = tested on: UO-31 renal
U251 CNS = tested on: U251 CNS
IGROV1 ovarian = tested on: IGROV1 ovarian
SK-OV-3 ovarian = tested on: SK-OV-3 ovarian
M14 melanoma = tested on: M14 melanoma
786-0 renal = tested on: 786-0 renal
HOP-62 NSCLC = tested on: HOP-62 NSCLC
SK-MEL-5 melanoma = tested on: SK-MEL-5 melanoma

Measured: TGI

CCOC(=O)/C(SC#N)=C(/N)N1CCCC1
> 100 µM: all assays above
